Reference: patent US20130116586A1, “USE OF DRONEDARONE OR A PHARMACEUTICALLY ACCEPTABLE SALT THEREOF FOR THE PREPARATION OF A DRUG FOR THE PREVENTION OF ATRIAL FIBRILLATION” (SANOFI, priority 2011, published 2013)
Structures can show the parent of a compound that is named as a salt.

Assays:
[1] = tested on: patients with permanent atrial fibrillation or flutter; assay: PALLAS study: dronedarone 400 mg bid vs placebo on top of standard therapy; type: in vivo, human; settings: for unplanned cardiovascular hospitalizations and mortality, events recorded: 400 mg bid; for relative risk of cardiovascular hospitalizations and deaths vs placebo: Cox model
Description: The PALLAS trial (Permanent Atrial fibriLLAtion outcome Study) using dronedarone on top of standard therapy was designed to evaluate the efficacy of dronedarone on major cardiovascular events in a patient population with permanent AF.
The primary efficacy objective of PALLAS was the reduction of: • 1) major cardiovascular events (stroke, systemic arterial embolism, myocardial infarction or cardiovascular death), or • 2) unplanned cardiovascular hospitalization or death from any cause.
Patients with permanent AF were at least 65 years of age with a 12-lead ECG recorded no more than 14 days prior to randomization showing AF or atrial flutter, documentation in the form of ECG rhythm strips or medical reports indicating AF or atrial flutter for at least 6 months prior to randomization without evidence of sinus rhythm in the intervening period. In addition, both the patient and physician must have reached a decision to allow AF to continue without further efforts to restore sinus rhythm.
Patients were randomized to dronedarone 400 mg bid or placebo.
• 1. NYHA class IV or recent unstable NYHA class III heart failure, where unstable refers to a requirement for intensification of therapy (e.g., increased diuretic, ACE/ARB, or inotropic dosage due to exacerbated symptoms within one month prior to randomization). • 2. Sustained daytime bradycardia <50 bpm without a permanent pacemaker • 3. QTc interval ≧500 ms, or 530 ms if there is ventricular paced rhythm • 4. Hypersensitivity to the active substance or to any of its excipients • 5. Need for co-administration of strong CYP3A4 inhibitors, such as ketoconazole, itraconazole, voriconazole, telithromycin, clarithromycin, nefazodone and ritonavir leading to increased systemic exposure to dronedarone • 6. Need for co-administration of medicinal products capable of inducing torsades de pointes ventricular tachycardia, such as phenothiazines, cisapride, bepridil, tricyclic antidepressants, terfenadine and certain oral macrolides, or Vaughan Williams class I and III antiarrhythmic agents) • 7. Severe hepatic impairment
Treatment was initiated using tablets containing either the placebo or an amount of dronedarone hydrochloride corresponding to 400 mg of dronedarone at a rate of one tablet twice a day with the morning and evening meals.
The anticipated duration of the treatment was variable according to the time at which each patient was included in the study, and could range between 3 months for the last patient included and 3 years for the first patient included.
The results obtained in this trial were analysed by the Kaplan Meier method for the figures, and the relative risk (RR) was estimated using Cox's proportional-effect regression model.
The relative risk (RR) is the ratio of the rates of occurrence of a hospitalization or of a death among the patients on dronedarone, relative to the patients on placebo.

[2] = tested on: patients with permanent atrial fibrillation; settings: in vivo; cited from earlier work
[3] = tested on: patients with atrial fibrillation; settings: in vivo; cited from earlier work
[4] = tested on: patients with atrial fibrillation/atrial flutter; settings: whole ATHENA trial; cited from earlier work
[5] = tested on: patients hospitalized with symptomatic unstable heart failure and severe left ventricular systolic function; settings: trial terminated early; cited from earlier work
[6] = tested on: patients with atrial fibrillation/atrial flutter; assay: ATHENA trial, including post-hoc exploratory analysis of patients with AF on all follow-up ECGs; type: in vivo, human; settings: for patients displaying AF on all ECGs recorded during follow-up: of 2301 patients assigned to dronedarone
Protocol: • AF/AFL atrial fibrillation or atrial flutter • ATHENA A placebo-controlled, double-blind, parallel arm Trial to assess the efficacy of dronedarone 400 mg bid for the prevention of cardiovascular Hospitalization or death from any cause in patiENts with Atrial fibrillation/atrial flutter • PALLAS Permanent Atrial fibriLLAtion Outcome Study Using Dronedarone on Top of Standard Therapy
For the sake of hypothesis generation, these patients can be considered as having permanent AF. In a post-hoc exploratory analysis of this cohort, the primary study endpoint (time to first CV hospitalization or all-cause death) occurred in 95 patients in the placebo group and 46 in the dronedarone group (HR 0.742, 95% Cl 0.522-1.056; p=0.096). Considering first unplanned CV hospitalizations, 85 patients in the placebo group and 37 on dronedarone reached this secondary study endpoint (HR 0.67, 95% Cl 0.46-0.99; p=0.04). There was a similar trend toward reduction in major cardiovascular events (stroke, ACS, cardiovascular death). These observations from ATHENA supported testing the efficacy of dronedarone for prevention of major cardiovascular events in patients with permanent AF.

For `CCCCc1oc2ccc(NS(C)(=O)=O)cc2c1C(=O)c1ccc(OCCCN(CCCC)CCCC)cc1` [dronedarone hydrochloride], which “unplanned cardiovascular hospitalizations and mortality, events recorded” value ([1]; preliminary results, placebo group 72 events) is on record?
Its value is 114 events.

And the “relative risk of cardiovascular deaths vs placebo” value ([1]; preliminary results, 95% CI 0.98-6.53, p=0.0462)?
Its value is 2.53.

What about the “relative risk of cardiovascular hospitalizations vs placebo” value ([1]; preliminary results, 95% CI 1.15-2.12, p=0.0039) of the same molecule?
Its value is 1.56.

And the “relative risk of cardiovascular hospitalizations for heart failure vs placebo” value ([1]; preliminary results, 95% CI 1.22-3.99, p=0.0070)?
Its value is 2.21.

And the “relative risk of heart failure related episodes vs placebo” value ([1]; preliminary results, 95% CI 1.66-3.74, p<0.0001)?
The value was 2.49.

What about the “relative risk of cardiovascular hospitalizations and deaths vs placebo” value ([1]; preliminary results, 95% CI 1.20, 2.17, p=0.001) of the same molecule?
The value was 1.62.

And the “cardiovascular mortality, events recorded” value ([1]; preliminary results, placebo group 6 events)?
Its value is 15 events.

And the “cardiovascular hospitalizations for heart failure, events recorded” value ([1]; preliminary results, placebo group 16 events)?
The value was 35 events.

What about the “heart failure, events recorded” value ([1]; preliminary results, placebo group 33 events) of the same molecule?
Its value is 80 events.

What about the “unplanned cardiovascular hospitalizations, events recorded” value ([1]; preliminary results, placebo group 68 events) of the same molecule?
The value was 104 events.

And the “relative risk of cardiovascular hospitalizations and death vs placebo” value ([1]; preliminary results, subgroup with NYHA class III heart failure, 95% CI 1.02, 2.44, p=0.041)?
Its value is 1.58.

What about the “relative risk of cardiovascular hospitalizations and death vs placebo” value ([1]; preliminary results, subgroup with left ventricular ejection fraction (LVEF)<40%, 95% CI 1.20, 2.30, p=0.002) of the same molecule?
Its value is 1.66.

And the “relative risk of cardiovascular hospitalizations and death vs placebo” value ([1]; preliminary results, subgroup with symptomatic heart failure, 95% CI 1.01, 2.09, p=0.043)?
Its value is 1.46.

What about the “unplanned cardiovascular hospitalizations and mortality, events recorded” value ([1]; results (III.1'), placebo group 67 events) of the same molecule?
Its value is 127 events.

What about the “relative risk of cardiovascular hospitalizations and deaths vs placebo” value ([1]; results (III.1'), p<0.001) of the same molecule?
The value was 1.95.

And the “relative risk of cardiovascular deaths vs placebo” value ([1]; results (III.2'), 95% CI 1.00-4.49, p=0.046)?
The value was 2.11.

What about the “cardiovascular mortality, events recorded” value ([1]; results (III.2'), placebo group 10 events) of the same molecule?
The value was 21 events.

What about the “relative risk of unplanned hospitalizations for cardiovascular causes vs placebo” value ([1]; results (III.3'), 95% CI 1.44-2.70, p<0.001) of the same molecule?
Its value is 1.97.

And the “unplanned hospitalizations for cardiovascular causes, events recorded” value ([1]; results (III.3'), placebo group 59 events)?
The value was 113 events.

And the “relative risk of cardiovascular hospitalizations for heart failure vs placebo” value ([1]; results (III.4'), 95% CI 1.10-2.99, p=0.02)?
Its value is 1.81.

And the “cardiovascular hospitalizations for heart failure, events recorded” value ([1]; results (III.4'), placebo group 24 events)?
The value was 43 events.

And the “relative risk of a heart failure episode or hospitalizations for heart failure vs placebo” value ([1]; results (III.9), 95% CI 1.57-2.98, p<0.001)?
The value was 2.16.

What about the “heart failure episode or hospitalizations for heart failure, events recorded” value ([1]; results (III.9), placebo group 55 events) of the same molecule?
The value was 115 events.

What does the source list for `CCCCc1oc2ccc(NS(C)(=O)=O)cc2c1C(=O)c1ccc(OCCCN(CCCC)CCCC)cc1` [dronedarone, 2-n-Butyl-3-[4-(3-di-n-butylaminopropoxy)benzoyl]-5-methylsulphonamidobenzofuran]?
co-primary outcomes, cardiovascular hospitalizations and heart failure events in the dronedarone group ([1]; preliminary review of the unblinded data): highly significant excess of events; rate control [2]: has rate-controlling properties; rhythm-controlling efficacy [3]: has been demonstrated; major clinical outcomes including cardiovascular hospitalizations or cardiovascular mortality, and stroke [4]: reduced major clinical outcomes; mortality vs placebo [5]: increased mortality; patients displaying AF on all ECGs recorded during follow-up ([6]; placebo 12.7%): 7.7%; patients displaying AF on all ECGs recorded during follow-up ([6]; placebo 296 of 2,327): 178 patients; HR for first unplanned CV hospitalizations vs placebo ([6]; post-hoc cohort with AF on all ECGs, 95% CI 0.46-0.99, p=0.04): 0.67; HR for primary study endpoint (first CV hospitalization or all-cause death) vs placebo ([6]; post-hoc cohort with AF on all ECGs, 95% CI 0.522-1.056, p=0.096): 0.742; first unplanned CV hospitalizations, patients reaching endpoint ([6]; post-hoc cohort with AF on all ECGs, placebo 85): 37 patients; primary study endpoint (time to first CV hospitalization or all-cause death), patients with event ([6]; post-hoc cohort with AF on all ECGs, placebo 95): 46 patients
